In patent US10508120B2, “TYK2 inhibitors and uses thereof” (Nimbus Lakshmi, Inc., priority 2017, dated 2019):

Legend:
Tyk2 kinase domain (DH1) = Tyk2 kinase domain (DH1) (Homo sapiens (Human), UniProt P29597); assay: Tyk2 Radioactive Kinase Assay; type: biochemical; conditions: compound at 10 μM, ATP 10 μM; for inhibition at 10 µM: read-out: Tyk2 JH1% Inhibition @ 10 μM
Procedure, shortened: (§1)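 Single-point screen: 10 μM test compound, radioactive kinase read-out, percent inhibition reported for each kinase domain.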

[1] = molecular target: human TYK2 (JH2domain-pseudokinase) (Homo sapiens (Human), UniProt P29597); assay: TYK2 JH2 Domain Binding Assay (KINOMEscan)
Chain of human TYK2 (JH2domain-pseudokinase) (P29597 556-888): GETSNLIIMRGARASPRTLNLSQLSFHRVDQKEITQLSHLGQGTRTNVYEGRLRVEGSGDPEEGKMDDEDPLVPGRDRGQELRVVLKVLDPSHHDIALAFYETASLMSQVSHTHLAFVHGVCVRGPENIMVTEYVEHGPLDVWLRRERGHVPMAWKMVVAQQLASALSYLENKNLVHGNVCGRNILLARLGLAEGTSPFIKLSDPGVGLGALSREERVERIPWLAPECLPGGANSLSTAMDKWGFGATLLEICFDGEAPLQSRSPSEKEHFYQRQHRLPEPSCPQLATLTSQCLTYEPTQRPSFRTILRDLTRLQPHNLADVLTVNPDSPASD
Procedure, shortened: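 The construct was human TYK2 G556–D888 fused to the NFkB DNA-binding domain and expressed in HEK293 cells; unpurified extract was incubated with compound and liganded beads for 1 hour at room temperature.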

JAK2 kinase domain (JH1) = JAK2 kinase domain (JH1) (Homo sapiens (Human), UniProt O60674); assay: JAK2 Radioactive Kinase Assay; type: biochemical; conditions: compound at 10 μM, ATP 10 μM; for inhibition at 10 µM: read-out: JAK2 JH1% Inhibition @ 10 μM
Chain of JAK2 kinase domain (JH1) (O60674 849-1124): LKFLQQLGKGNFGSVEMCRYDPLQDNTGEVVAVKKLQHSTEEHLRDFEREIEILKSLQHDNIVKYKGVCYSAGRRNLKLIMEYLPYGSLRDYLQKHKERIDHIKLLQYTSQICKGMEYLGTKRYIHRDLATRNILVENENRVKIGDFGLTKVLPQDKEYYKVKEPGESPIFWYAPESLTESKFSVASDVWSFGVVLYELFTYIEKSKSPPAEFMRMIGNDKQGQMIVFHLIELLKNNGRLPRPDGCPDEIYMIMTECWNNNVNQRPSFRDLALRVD
Procedure, shortened: as §1

Chain of Tyk2 kinase domain (DH1) (P29597 897-1176): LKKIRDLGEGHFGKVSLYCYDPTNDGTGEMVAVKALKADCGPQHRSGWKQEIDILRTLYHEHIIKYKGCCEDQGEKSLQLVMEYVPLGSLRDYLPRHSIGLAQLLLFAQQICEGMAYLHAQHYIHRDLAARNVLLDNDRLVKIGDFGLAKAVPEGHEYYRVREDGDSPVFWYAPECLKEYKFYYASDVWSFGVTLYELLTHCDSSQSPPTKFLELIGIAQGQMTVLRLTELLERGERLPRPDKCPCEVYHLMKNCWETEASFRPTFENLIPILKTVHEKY

| Compound | inhibition at 10 µM (Tyk2 kinase domain (DH1)) | Kd [1] | inhibition at 10 µM (JAK2 kinase domain (JH1)) | Tyk2 JH1% Inhibition @ 10 μM (Tyk2 kinase domain (DH1)) | JAK2 JH1% Inhibition @ 10 μM (JAK2 kinase domain (JH1)) |
| --- | --- | --- | --- | --- | --- |
| CNc1cc(Nc2cccn(C3CCN(C)CC3)c2=O)nc2c(C(=O)NCC3(CO)CC3)cnn12 [I-543] | < 50% | 0.2 to 1 nM | < 50% | – | – |
| CNc1cc(Nc2cccnc2OC2CC2)nc2c(C(=O)N[C@@H]3COC[C@@H]3O)cnn12 [I-546] | < 50% | 1 to 10 nM | < 50% | – | – |
| CNc1cc(Nc2cccc([C@@H]3CCCOC3)n2)nc2c(C(=O)NC3CC3)cnn12 [I-548] | < 50% | < 0.2 nM | 50 to 70% | – | – |
| CNc1cc(Nc2cccc([C@H]3CCCOC3)n2)nc2c(C(=O)NC3CC3)cnn12 [I-549] | < 50% | < 0.2 nM | < 50% | – | – |
| CNc1cc(Nc2cccn(C3CC4(COC4)C3)c2=O)nc2c(C(=O)NC3CC3)cnn12 [I-550] | < 50% | < 0.2 nM | < 50% | – | – |
| CNc1cc(-n2cc(N3CCCC3)c3ncccc32)nc2c(C(=O)NC3CC3)cnn12 [I-552] | < 50% | 1 to 10 nM | < 50% | – | – |
| CNc1cc(-n2cc(N3CCCC3)c3ncccc32)nc2c(C(=O)N[C@@H]3C[C@@H]3F)cnn12 [I-553] | < 50% | 0.2 to 1 nM | < 50% | – | – |
| CNc1cc(-n2cc(N3CCOCC3)c3ncccc32)nc2c(C(=O)NC3CC3)cnn12 [I-554] | < 50% | 1 to 10 nM | < 50% | – | – |
| CNc1cc(-n2cc(N3CCOCC3)c3ncccc32)nc2c(C(=O)N[C@H]3C[C@H]3F)cnn12 [I-555] | < 50% | 1 to 10 nM | < 50% | – | – |
| CNc1cc(Nc2cccn(C3CCOCC3)c2=O)nc2c(C(=O)N[C@@H]3CC[C@@H]3O)cnn12 [I-556] | < 50% | < 0.2 nM | < 50% | – | – |
| CNc1cc(Nc2cccn(C3CCOCC3)c2=O)nc2c(C(=O)N[C@H]3CC[C@H]3O)cnn12 [I-557] | – | 0.2 to 1 nM | – | A (percent inhibition at 10 μM lower than 50) | A (percent inhibition at 10 μM lower than 50) |
| CNc1cc(Nc2cc(F)cn([C@@H]3CCCOC3)c2=O)nc2c(C(=O)N[C@H]3C[C@H]3F)cnn12 [I-558] | < 50% | < 0.2 nM | < 50% | – | – |
| CNc1cc(Nc2cccn([C@H]3CC[C@H](OC)CC3)c2=O)nc2c(C(=O)N[C@H]3CC[C@H]3O)cnn12 [I-561] | – | 0.2 to 1 nM | – | A (percent inhibition at 10 μM lower than 50) | A (percent inhibition at 10 μM lower than 50) |
| CNc1cc(Nc2cccc([C@H]3CCCCO3)n2)nc2c(C(=O)NCC3(CO)CC3)cnn12 [I-564] | < 50% | < 0.2 nM | < 50% | – | – |
| CNc1cc(Nc2cccc([C@@H]3CCCCO3)n2)nc2c(C(=O)NCC3(CO)CC3)cnn12 [I-565] | < 50% | < 0.2 nM | < 50% | – | – |
| CNc1cc(Nc2cccn([C@@H]3CCOC[C@@H]3OC)c2=O)nc2c(C(=O)NC3CC3)cnn12 [I-567] | < 50% | 1 to 10 nM | < 50% | – | – |
| CNc1cc(Nc2cccn([C@@H]3CCC[C@H](OC)C3)c2=O)nc2c(C(=O)NC3CC3)cnn12 [I-568] | < 50% | < 0.2 nM | < 50% | – | – |
| CNc1cc(Nc2cccn(C3CCN(CCF)CC3)c2=O)nc2c(C(=O)NC3CC3)cnn12 [I-569, N-cyclopropyl-5-((1-(1-(2-fluoroethyl)piperidin-4-yl)-2-oxo-1,2-dihydropyridin-3-yl)amino)-7-(methylamino)pyrazolo[1,5-a]pyrimidine-3-carboxamide] | < 50% | < 0.2 nM | < 50% | – | – |
| CNc1cc(Nc2cccn(C3CCCOC3)c2=O)nc2c(C(=O)NCC(C)(C)CO)cnn12 (stereo not drawn) [I-571] | < 50% | < 0.2 nM | < 50% | – | – |
| CNc1cc(-n2cc(N3CCN(C)CC3)c3ncccc32)nc2c(C(=O)NC3CC3)cnn12 [I-574] | < 50% | 1 to 10 nM | < 50% | – | – |
| CNc1cc(-n2cc(N3CCN(C)CC3)c3ncccc32)nc2c(C(=O)N[C@H]3C[C@H]3F)cnn12 [I-575] | < 50% | 1 to 10 nM | < 50% | – | – |

Further lines, with some results ahead:

| inhibition at 10 µM (Tyk2 kinase domain (DH1)) | Kd [1] | inhibition at 10 µM (JAK2 kinase domain (JH1)) | Compound | Tyk2 JH1% Inhibition @ 10 μM (Tyk2 kinase domain (DH1)) | JAK2 JH1% Inhibition @ 10 μM (JAK2 kinase domain (JH1)) |
| --- | --- | --- | --- | --- | --- |
| < 50% | 1 to 10 nM | < 50% | CNc1cc(Nc2cccn(CCOC3CC3)c2=O)nc2c(C(=O)NC3CC4(COC4)C3)cnn12 [I-576, 5-((1-(2-cyclopropoxyethyl)-2-oxo-1,2-dihydropyridin-3-yl)amino)-7-(methylamino)-N-(2-oxaspiro[3.3]heptan-6-yl)pyrazolo[1,5-a]pyrimidine-3-carboxamide] | – | – |
| < 50% | 0.2 to 1 nM | < 50% | CNc1cc(Nc2cccn(CCOC3CC3)c2=O)nc2c(C(=O)NCC3(CO)CC3)cnn12 [I-577, 5-((1-(2-cyclopropoxyethyl)-2-oxo-1,2-dihydropyridin-3-yl)amino)-N-((1-(hydroxymethyl)cyclopropyl)methyl)-7-(methylamino)pyrazolo[1,5-a]pyrimidine-3-carboxamide] | – | – |
| < 50% | < 0.2 nM | < 50% | CNc1cc(Nc2cccc([C@H]3CCCOC3)n2)nc2c(C(=O)NCC(C)(C)CO)cnn12 [I-579] | – | – |
| < 50% | < 0.2 nM | < 50% | CNc1cc(Nc2cccc([C@@H]3CCCOC3)n2)nc2c(C(=O)NCC(C)(C)CO)cnn12 [I-580] | – | – |
| < 50% | 1 to 10 nM | < 50% | CNc1cc(Nc2c(F)ccn(-c3nccs3)c2=O)nc2c(C(=O)NC3CC3)cnn12 [I-581] | – | – |
| < 50% | < 0.2 nM | < 50% | CNc1cc(-c2cn(CCN3CCOCC3)c3ncccc23)nc2c(C(=O)NC3CC3)cnn12 [I-582] | – | – |
| < 50% | < 0.2 nM | < 50% | CNc1cc(-c2cn(CCN3CCOCC3)c3ncccc23)nc2c(C(=O)N[C@H]3C[C@H]3F)cnn12 [I-583] | – | – |
| < 50% | < 0.2 nM | < 50% | CNc1cc(-c2cn(CCN3CCCCC3)c3ncccc23)nc2c(C(=O)NC3CC3)cnn12 [I-584, N-cyclopropyl-7-(methylamino)-5-(1-(2-(piperidin-1-yl)ethyl)-1H-pyrrolo[2,3-b]pyridin-3-yl)pyrazolo[1,5-a]pyrimidine-3-carboxamide] | – | – |
| < 50% | 0.2 to 1 nM | < 50% | CNc1cc(-c2cn(C(C)C)c3ncccc23)nc2c(C(=O)NCC3(CO)CC3)cnn12 [I-587] | – | – |
| < 50% | 0.2 to 1 nM | < 50% | CNc1cc(-c2cn(C(C)C)c3ncccc23)nc2c(C(=O)NCC(C)(C)CO)cnn12 [I-588, N-(3-hydroxy-2,2-dimethylpropyl)-5-(1-isopropyl-1H-pyrrolo[2,3-b]pyridin-3-yl)-7-(methylamino)pyrazolo[1,5-a]pyrimidine-3-carboxamide] | – | – |
| < 50% | < 0.2 nM | < 50% | CNc1cc(Nc2cccc(N3CCOCC3)n2)nc2c(C(=O)NC3CC3)cnn12 [I-589] | – | – |
| < 50% | < 0.2 nM | < 50% | CNc1cc(Nc2cccn(-c3ncccc3F)c2=O)nc2c(C(=O)NCC(C)CO)cnn12 (stereo not drawn) [I-593, 5-((3′-fluoro-2-oxo-2H-[1,2′-b]pyridinyl-3-yl)amino)-N-(3-hydroxy-2-methylpropyl)-7-(methylamino)pyrazolo[1,5-a]pyrimidine-3-carboxamide] | – | – |
| – | 0.2 to 1 nM | – | CNc1cc(Nc2cccn([C@@H]3CCOC[C@@H]3OC)c2=O)nc2c(C(=O)NC3CC3)cnn12 [I-594] | A (percent inhibition at 10 μM lower than 50) | A (percent inhibition at 10 μM lower than 50) |
| < 50% | 1 to 10 nM | < 50% | CNc1cc(Nc2cccn([C@H]3CCOC[C@H]3OC)c2=O)nc2c(C(=O)NC3CC3)cnn12 [I-595] | – | – |
| < 50% | 0.2 to 1 nM | < 50% | CNc1cc(Nc2cccn(C3CCOCC3)c2=O)nc2c(C(=O)N[C@@H]3CC[C@H]3O)cnn12 [I-597] | – | – |
| 50 to 70% | < 0.2 nM | < 50% | CNc1cc(Nc2cccn([C@@H]3CCCOC3)c2=O)nc2c(C(=O)NCC(C)(C)CO)cnn12 [I-598] | – | – |
| < 50% | < 0.2 nM | < 50% | CNc1cc(Nc2cccn([C@H]3CCCOC3)c2=O)nc2c(C(=O)NCC(C)(C)CO)cnn12 [I-599] | – | – |
| < 50% | < 0.2 nM | < 50% | CNc1cc(Nc2cccn(-c3cnn(C[C@@H]4CCOC4)c3)c2=O)nc2c(C(=O)NC3CC3)cnn12 [I-600] | – | – |
| < 50% | < 0.2 nM | < 50% | CNc1cc(Nc2cccn(-c3cnn(C[C@H]4CCOC4)c3)c2=O)nc2c(C(=O)NC3CC3)cnn12 [I-601] | – | – |
| < 50% | < 0.2 nM | < 50% | CNc1cc(Nc2cccc([C@H]3CCCOC3)n2)nc2c(C(=O)N[C@H]3CC[C@@H]3O)cnn12 [I-602] | – | – |
| < 50% | < 0.2 nM | < 50% | CNc1cc(Nc2cccc([C@H]3CCCOC3)n2)nc2c(C(=O)N[C@@H]3CC[C@@H]3O)cnn12 [I-604] | – | – |
